{"source": "patent EP4268819A1", "about": "(priority 2022, dated 2023)", "key": {"[1]": {"test_system": "ZIKA", "conditions": "against ZIKA; reported, with a low therapeutic index; cited from earlier work"}, "[2]": {"test_system": "DENV", "conditions": "against DENV; reported, with a low therapeutic index; cited from earlier work"}, "[3]": {"test_system": "Calu-3 cells", "experiment": "Toxicity by staining of the nuclei (Hoechst+ cell count) in the icSARS-CoV-2-mNG IC50 experiment", "conditions": "Calu3 cells in the icSARS-CoV-2-mNG IC50 experiment"}, "[4]": {"experiment": "in vitro", "conditions": "human, calu-3 cells, CC50 (IncuCyte), confluency every 3 hours for 72h", "quoted_text": "(§4) Calu-3 (40.000/well), Huh7.5 (10.000/well) and CaCo2 (10.000/well) cells were seeded in 96-well plates in DMEM-Media. The cells were treated with the drug compounds at the indicated concentrations, negative control (non-treated), DMSO control and positive control (50% DMSO treated) were added, and plates were then stored in the IncuCyte® at 37 °C, 5 % CO2 for 72h measuring every 3 hours cell confluency via phase channel with 10x objective. For Analysis IncuCyte® S3 Software was used.\n(§5) Plates were then stored in the IncuCyte® measuring every 3 hours cell confluency."}, "[5]": {"experiment": "in vitro", "type": "cell-based", "conditions": "human, caco-2; IncuCyte; cell line not specified; read-out: level of growth inhibition (live-cell imaging, growth curves)", "excerpt": "For Analysis IncuCyte® S3 Software was used."}, "[6]": {"test_system": "Calu-3 cells", "quoted_text": "as §4, §5"}, "[7]": {"test_system": "icSARS-CoV-2-mNG", "type": "cell-based, SARS-CoV-2"}, "[8]": {"test_system": "icSARS-CoV-2-mNG", "experiment": "IC50 calculation with icSARS-CoV-2-mNG in Calu-3 cells (mNG+/Hoechst+ infection rate)", "conditions": "ic-SARS-CoV-2-mNG in Calu-3 cells; for Therapeutic range: CC50/IC50 (CTG): CC50 by CTG; for Therapeutic range: CC50/IC50 (IncuCyte): CC50 by IncuCyte; for Therapeutic range: CC50/IC50 (MTT): CC50 by MTT"}, "[9]": {"experiment": "Cell viability via live cell imaging (IncuCyte), Huh7.5", "conditions": "human, huh7.5 cells", "quoted_text": "as §4, §5"}, "[10]": {"test_system": "DENV type 2 reporter virus", "experiment": "microbe, parasite or virus in culture", "conditions": "Dengue virus, Huh7.5, 24 h"}, "[11]": {"test_system": "DENV type 2 reporter virus"}, "[12]": {"experiment": "in vitro", "type": "cell-based", "conditions": "human", "experimental": "The old cell media was then discarded, and cells were washed with PBS. 35 µl DMEM-Media and 35 µl CellTiterGlow® reagent (#G7571, Promega) were added and incubated for 2 minutes on an orbital shaker protected from light. Afterwards plates were incubated for 10 minutes without shaking to stabilize the luminescent signal. 50 µl of the supernatant was transferred to a white 96 well measure plate and measured by Berthold TriStar2 S Multimode Reader. The background signal was determined by the luminescent signal of the positive control subtracted from the values used for analysis. The data was then normalized to the non-treated control. CC50 was calculated as the half-maximal cytotoxic dose via GraphPad Prism 9 using four-parameter nonlinear regression.\nLuminescent signals were measured by Berthold TriStar2 S Multimode Reader. The data was then normalized to the non-treated control. CC50 was calculated as the half-maximal cytotoxic dose via GraphPad Prism 9 using four-parameter nonlinear regression."}, "[13]": {"experiment": "CC50 calculation, MTT assay, Calu-3", "type": "cell-based", "conditions": "human, Calu-3 cells", "experimental": "(§1) The cells were treated with drug candidates at the indicated concentrations. Negative control (non-treated), DMSO control and positive control (100% DMSO treated) were added, and plates were then stored at 37 °C, 5 % CO2 for 72h. The old cell media was then discarded, and cells were incubated for 3 h at 37°C, 5% CO2 with 90 µl phenolred-free DMEM-Media and 10 µl of a 5 mg/ml MTT solution per well (#ab146345 Abcam). Afterwards Media was discarded carefully, and Formazan crystals were dissolved on a shaker with 100 µl MTT buffer/well (0.04 N HCI in isopropanol) for 10 minutes. Absorption levels at 570 nm and 650 nm wavelength were measured by Berthold TriStar2 S Multimode Reader and values were normalized to non-treated cells. CC50 was calculated as the half-maximal cytotoxic dose via GraphPad Prism 9 using four-parameter nonlinear regression.\n(§2) Absorption levels at 570 nm and 650 nm wavelength were measured and values were normalized to non-treated cells. CC50 was calculated as the half-maximal cytotoxic dose via GraphPad Prism 9 using four-parameter nonlinear regression.\n(§3) They now expanded the tests and used MTT assay, which is a procedure used to calculate the redox activity at the mitochondrial membrane of cells and the commercial cell titer glow assay (Promega) to measure cellular ATP. Cell lines tested were the ones used for our antiviral assay, i.e. Calu-3, Caco-2 and Huh7.5 cells."}, "[14]": {"experiment": "CC50 calculation, MTT assay, Huh7.5", "type": "cell-based", "conditions": "human, Huh7.5 cells", "experimental": "as §1, §2, §3"}, "[15]": {"test_system": "CaCo2 and Calu3 cells", "conditions": "screening at 50, 10, 2 µM"}, "[16]": {"test_system": "Huh7.5 cells", "experiment": "CC50 calculation, MTT assay, Huh7.5", "type": "cell-based", "conditions": "72h, 4320 min", "experimental": "as §1, §2, §3"}, "[17]": {"conditions": "Calu3 and Caco2 cells, 24h pre-treatment, […], 50, 10, 2 µM (Atpenin A5 10, 2, 0.4 µM)"}}, "note": "pIC50: −log10 of the molar value. Like-named read-outs stand apart in the source and are kept apart here."}
{"smiles": "CN(C)C(=N)N=C(N)N", "note": "[Metformin]", "values": [{"measurement": "antiviral activity", "setting": "[1]", "value": "mM range"}, {"measurement": "antiviral activity", "setting": "[2]", "value": "mM range"}, {"measurement": "toxicity (staining of the nuclei, cell count)", "setting": "[3]", "value": "without any cytotoxicity"}]}
{"smiles": "COc1[nH]c(=O)c(C(=O)[C@@H](C)C[C@H](C)[C@@H](Cl)CCl)c(O)c1OC", "note": "[Atpenin A5, atpenin A5]", "values": [{"measurement": "CC50 at 72 h", "setting": "[4]", "value": "> 160", "unit": "µM"}, {"measurement": "CC50 at 72 h", "setting": "[5]", "value": "> 60", "unit": "µM"}, {"measurement": "CC50", "setting": "[6]; read-out: CC50 (IncuCyte), confluency every 3 hours for 72h, 4320 min", "value": "> 80", "unit": "µM"}, {"measurement": "SARS-CoV-2 infection of the cell lines (infection rate mNG+/Hoechst+ cells)", "setting": "[7]; [17]", "value": "inhibited SARS-CoV-2 infection of the cell lines in a dose-dependent manner"}, {"measurement": "Therapeutic range: CC50/IC50 (CTG)", "setting": "[8]", "value": "CTG: 1.72"}, {"measurement": "Therapeutic range: CC50/IC50 (IncuCyte)", "setting": "[8]", "value": "IncuCyte: > 320"}, {"measurement": "Therapeutic range: CC50/IC50 (MTT)", "setting": "[8]", "value": "MTT: 24"}, {"measurement": "CC50 at 72 h", "setting": "[9]", "value": 65, "unit": "µM"}, {"measurement": "pIC50", "setting": "[10]", "value": 6.57}, {"measurement": "Therapeutic range: CC50/IC50 (CTG)", "setting": "[11]; Dengue Virus in Huh7.5 cells, CC50 by CTG", "value": "CTG: 229.5"}, {"measurement": "Therapeutic range: CC50/IC50 (IncuCyte)", "setting": "[11]; Dengue Virus in Huh7.5 cells, CC50 by IncuCyte", "value": "IncuCyte: 240.7"}, {"measurement": "Therapeutic range: CC50/IC50 (MTT)", "setting": "[11]; Dengue Virus in Huh7.5 cells, CC50 by MTT", "value": "MTT: 375.2"}, {"measurement": "CC50 at 72 h", "setting": "[12]; Calu-3 cells, 72h, read-out: CC50 (CTG)", "value": 0.86, "unit": "µM"}, {"measurement": "CC50 at 72 h", "setting": "[12]; Huh7.5 cells, 72h, read-out: CC50 (CTG)", "value": 62, "unit": "µM"}, {"measurement": "CC50 at 72 h", "setting": "[13]", "value": 1.2, "unit": "µM"}, {"measurement": "CC50 at 72 h", "setting": "[14]", "value": 101, "unit": "µM"}]}
{"smiles": "O[C@H]1[C@H](O)[C@@H](O)[C@H](O)[C@@H](O)[C@@H]1O", "note": "[Scyllo-Inositol, Scyllo-inositol]", "values": [{"measurement": "SARS-CoV-2 infection of the cell lines (infection rate mNG+/Hoechst+ cells)", "setting": "[7]; [17]", "value": "did not show any activity"}]}
{"smiles": "CC(C)Cc1nn(C)c(=O)c2c(SCCCO)n(Cc3cccc4ccccc34)cc12", "note": "[SR13800]", "values": [{"measurement": "toxicity (cell viability by Hoechst staining of the nucleus)", "setting": "[15]", "value": "toxic"}]}
{"smiles": "[H]/N=C(/N)N/C(=N/[H])NCCc1ccccc1", "note": "[Phenformin]", "values": [{"measurement": "CC50", "setting": "[6]; human, 72h", "value": 1500, "unit": "µM"}, {"measurement": "SARS-CoV-2 infection of the cell lines (infection rate mNG+/Hoechst+ cells)", "setting": "[7]", "value": "inhibited SARS-CoV-2 infection of the cell lines in a dose-dependent manner"}, {"measurement": "Therapeutic range: CC50/IC50 (CTG)", "setting": "[8]", "value": "CTG: 1306.4"}, {"measurement": "Therapeutic range: CC50/IC50 (IncuCyte)", "setting": "[8]", "value": "IncuCyte: 867.1"}, {"measurement": "Therapeutic range: CC50/IC50 (MTT)", "setting": "[8]", "value": "MTT: 876.3"}, {"measurement": "Therapeutic range: CC50/IC50 (CTG)", "setting": "[11]; human, huh7.5 cells", "value": "CTG: 109.2"}, {"measurement": "Therapeutic range: CC50/IC50 (IncuCyte)", "setting": "[11]; human, huh7.5 cells", "value": "IncuCyte: 59.9"}, {"measurement": "Therapeutic range: CC50/IC50 (MTT)", "setting": "[11]; human, huh7.5 cells", "value": "MTT: 3.3"}, {"measurement": "CC50 at 72 h", "setting": "[12]; caco-2", "value": "> 2", "unit": "µM"}, {"measurement": "CC50 at 72 h", "setting": "[12]; calu-3 cells", "value": "> 2", "unit": "µM"}, {"measurement": "CC50 at 72 h", "setting": "[12]; huh7.5 cells", "value": "> 2", "unit": "µM"}, {"measurement": "toxicity (staining of the nuclei, cell count)", "setting": "[3]", "value": "without any toxicity"}, {"measurement": "CC50", "setting": "[16]", "value": 61.2, "unit": "µM"}]}
